Drawing on US20230120564A1, “PYRIDO[3,4-D]PYRIMIDINE DERIVATIVE AND THERAPEUTIC PHARMACEUTIC COMPOSITION COMPRISING SAME” (KOREA INSTITUTE OF SCIENCE AND TECHNOLOGY, priority 2020, published 2023), this text covers IC50, GI50 and inhibition for 1 molecule.

As usually defined, the IC50 is the concentration that inhibits the measured activity by half.

Molecules are shown by their SMILES.

The target in assay [1] is ACK1 (Homo sapiens, UniProt Q07912). Description: Kinase inhibitory activity, IC50. In kind it is biochemical. On the procedure: (§1) The inhibitory activities of the compounds of the present invention against two kinases, GCK and ACK1, were measured, and the IC50 values thereof were calculated. As a control, the following compound GNF7 was used.
Assay [2] concerns the target T1, GCK (Homo sapiens, UniProt Q12851).
T1 sequence (Q12851 1-820): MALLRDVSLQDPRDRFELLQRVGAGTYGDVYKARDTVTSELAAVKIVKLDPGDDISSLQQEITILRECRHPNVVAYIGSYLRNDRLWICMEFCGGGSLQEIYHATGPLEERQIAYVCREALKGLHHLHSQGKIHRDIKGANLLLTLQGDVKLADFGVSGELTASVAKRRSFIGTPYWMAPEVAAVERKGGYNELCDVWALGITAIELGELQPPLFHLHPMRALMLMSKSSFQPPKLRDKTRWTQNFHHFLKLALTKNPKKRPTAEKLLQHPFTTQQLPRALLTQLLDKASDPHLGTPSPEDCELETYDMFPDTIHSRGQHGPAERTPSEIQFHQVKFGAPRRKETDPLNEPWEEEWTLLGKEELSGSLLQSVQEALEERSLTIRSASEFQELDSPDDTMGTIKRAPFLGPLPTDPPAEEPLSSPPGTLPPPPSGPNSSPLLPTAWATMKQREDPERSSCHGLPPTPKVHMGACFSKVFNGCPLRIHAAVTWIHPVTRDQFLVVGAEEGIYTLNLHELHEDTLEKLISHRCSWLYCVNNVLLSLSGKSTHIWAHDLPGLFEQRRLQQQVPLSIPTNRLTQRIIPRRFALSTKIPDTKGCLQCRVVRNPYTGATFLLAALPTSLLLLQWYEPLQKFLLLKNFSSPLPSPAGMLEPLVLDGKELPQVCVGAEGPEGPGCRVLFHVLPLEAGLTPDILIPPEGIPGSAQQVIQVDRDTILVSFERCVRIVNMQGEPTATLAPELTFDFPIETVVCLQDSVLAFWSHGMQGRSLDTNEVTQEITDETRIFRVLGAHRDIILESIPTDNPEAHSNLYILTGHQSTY
Put plainly: Kinase inhibitory activity, IC50. In kind it is biochemical. On the procedure: as §1

Assay [3] relates to OCI-AML3 (N-Ras Q61L). Description: Inhibition of cell proliferation (GI50). Format: cell-based. To be noted: Homo sapiens, OCI-AML-3; OCI-AML3 cell line; read-out: Proliferation inhibitory activity (GI50, μM) OCI-AML3 (N-Ras Q61L). On the procedure: (§2) The inhibitory activities of the compounds of the present invention against the proliferation of the mt-NRAS (G12D) Ba/F3 and […] (mt-NRAS) cell lines were measured and the GI50 values thereof were calculated.
Referring to the results in Table 2, it can be seen that the compound of the present invention has inhibitory activity against the proliferation of the human acute myeloid leukemia cell line (OCI-AML3) having the NRAS mutant gene, and the effect thereof is remarkable. Therefore, it can be seen that the compound of the present invention is particularly effective as a therapeutic agent for acute myeloid leukemia (AML).

For assay [4], the system named is Ba/F3 (N-Ras G12D). Description: Inhibition of cell proliferation (GI50). The note with it: Mus musculus, BaF3; mt-NRAS (G12D) Ba/F3 cell line; read-out: Proliferation inhibitory activity (GI50, μM) Ba/F3 (N-Ras G12D). In kind it is cell-based. On the procedure:
as §2

Assay [5] deals with Ba/F3 (parental). Description: Inhibition of cell proliferation (GI50). Format: cell-based. The note with it: Mus musculus, BaF3; Ba/F3 (parental) cell line; read-out: Proliferation inhibitory activity (GI50, μM) Ba/F3 (parental). On the procedure:
The inhibitory activities of the compounds of the present invention against the proliferation of the Ba/F3 (parental) cell line were measured and the GI50 values thereof were calculated.

Assay [6] has as its target ABL1 (Homo sapiens, UniProt P00519). Put plainly: full kinase panel biochemical assay. The note with it: single concentration of 1 μM; read-out: percent inhibition of ABL1. On the procedure:
(§3) In order to measure the protein kinase inhibitory activity (% inhibition) of the compound of the present invention, biochemical assay was performed in the full kinase panel. As a test compound, Compound No. 4 was used. The percent inhibition of each kinase when treated with the test compound at a single concentration of 1 μM was measured, and the residual enzyme activity values (%) of the kinases were calculated. Kinases whose calculated residual enzyme activity values (%) was 30% or less (i.e., kinases inhibited by 70% or more) are as follows: ABL1, ABL2/ARG, ACK1, ARAF, BLK, BMX/ETK, BRAF, BRK, BTK, c-Kit, c-Src, CSK, DDR1, DDR2, EPHA1, EPHA2, EPHA3, EPHA4, EPHA5, EPHA6, EPHA7, EPHA8, EPHB1, EPHB2, EPHB3, EPHB4, ERBB2/HER2, ERBB4/HER4, FGFR1, FGFR2, FGFR3, FGR, FLT1/VEGFR1, FLT4/VEGFR3, FMS, FRK/PTK5, FYN, GCK/MAP4K2, HCK, HGK/MAP4K4, JAK1, JAK2, KDR/VEGFR2, KHS/MAP4K5, LCK, LYN, LYN B, MEKK1, MLK4, MYLK3, NEK5, P38a/MAPK14, P38b/MAPK11, PDGFRa, PDGFRb, PEAK1, RET, RIPK2, RIPK4, SIK2, SRPK1, TAOK3/JIK, TLK1, TNK1, TXK, TYK2, YES/YES1, YSK4/MAP3K19, and ZAK/MLTK.

In assay [7] the target is BMX/ETK (Homo sapiens, UniProt P51813). Put plainly: full kinase panel biochemical assay. To be noted: single concentration of 1 μM; read-out: percent inhibition of BMX/ETK. On the procedure: as §3
BMX/ETK, sequence (P51813 whole entry): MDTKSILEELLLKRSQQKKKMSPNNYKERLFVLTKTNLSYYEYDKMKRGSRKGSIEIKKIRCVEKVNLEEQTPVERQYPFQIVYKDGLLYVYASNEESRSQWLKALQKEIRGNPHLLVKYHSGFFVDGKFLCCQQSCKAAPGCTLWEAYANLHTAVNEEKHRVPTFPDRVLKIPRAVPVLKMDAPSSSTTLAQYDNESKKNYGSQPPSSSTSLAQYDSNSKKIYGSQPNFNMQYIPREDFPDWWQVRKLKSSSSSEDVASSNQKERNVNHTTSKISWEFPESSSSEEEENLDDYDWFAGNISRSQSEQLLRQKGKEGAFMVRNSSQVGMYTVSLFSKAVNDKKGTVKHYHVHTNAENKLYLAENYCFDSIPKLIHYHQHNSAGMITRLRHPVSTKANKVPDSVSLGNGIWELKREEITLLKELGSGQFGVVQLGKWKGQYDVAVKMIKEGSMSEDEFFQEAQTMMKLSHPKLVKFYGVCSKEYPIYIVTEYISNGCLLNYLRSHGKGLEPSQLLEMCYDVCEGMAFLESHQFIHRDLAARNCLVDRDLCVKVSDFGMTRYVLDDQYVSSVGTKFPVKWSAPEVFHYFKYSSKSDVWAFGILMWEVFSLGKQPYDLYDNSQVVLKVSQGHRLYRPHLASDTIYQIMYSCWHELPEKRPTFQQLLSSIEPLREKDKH
Assay [8] has as its target BTK (Homo sapiens, UniProt Q06187). Description: full kinase panel biochemical assay. To be noted: single concentration of 1 μM; read-out: percent inhibition of BTK. On the procedure: as §3
The target in assay [9] is DDR2 (Homo sapiens, UniProt Q16832). Description: full kinase panel biochemical assay. To be noted: single concentration of 1 μM; read-out: percent inhibition of DDR2. On the procedure: as §3
DDR2, sequence (Q16832 22-855): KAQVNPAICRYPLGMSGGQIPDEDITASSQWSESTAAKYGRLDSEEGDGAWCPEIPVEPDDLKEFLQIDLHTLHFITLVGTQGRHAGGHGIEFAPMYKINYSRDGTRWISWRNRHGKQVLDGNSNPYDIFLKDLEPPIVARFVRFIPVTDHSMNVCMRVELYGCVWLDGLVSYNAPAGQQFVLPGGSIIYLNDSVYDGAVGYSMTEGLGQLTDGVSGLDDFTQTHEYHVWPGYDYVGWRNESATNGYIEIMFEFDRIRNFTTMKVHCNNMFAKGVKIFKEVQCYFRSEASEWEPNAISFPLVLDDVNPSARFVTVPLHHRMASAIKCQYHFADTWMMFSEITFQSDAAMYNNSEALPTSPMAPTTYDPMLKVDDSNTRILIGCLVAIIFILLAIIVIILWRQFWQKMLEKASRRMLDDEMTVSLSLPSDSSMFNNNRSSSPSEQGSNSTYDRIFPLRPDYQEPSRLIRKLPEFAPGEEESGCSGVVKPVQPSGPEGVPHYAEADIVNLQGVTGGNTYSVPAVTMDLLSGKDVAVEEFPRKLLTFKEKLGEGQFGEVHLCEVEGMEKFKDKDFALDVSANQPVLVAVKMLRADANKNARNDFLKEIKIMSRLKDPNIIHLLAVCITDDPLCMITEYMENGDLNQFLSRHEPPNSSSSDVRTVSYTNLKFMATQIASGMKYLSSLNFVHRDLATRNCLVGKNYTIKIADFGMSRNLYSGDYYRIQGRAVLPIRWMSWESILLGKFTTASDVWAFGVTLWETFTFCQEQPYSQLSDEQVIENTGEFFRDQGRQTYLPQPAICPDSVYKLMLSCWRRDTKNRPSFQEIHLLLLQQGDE
Assay [10] has as its target PDGFRa (Homo sapiens, UniProt P16234). Put plainly: full kinase panel biochemical assay. To be noted: single concentration of 1 μM; read-out: percent inhibition of PDGFRa. As for the experimental part:
as §3

In assay [11] the target is PEAK1 (Homo sapiens, UniProt Q9H792). Put plainly: full kinase panel biochemical assay. To be noted: single concentration of 1 μM; read-out: percent inhibition of PEAK1. As for the experimental part:
as §3

Assay [12] deals with SIK2 (Homo sapiens, UniProt Q9H0K1). Description: full kinase panel biochemical assay. The note with it: single concentration of 1 μM; read-out: percent inhibition of SIK2. On the procedure:
as §3

PDGFRa, sequence (P16234 24-1089): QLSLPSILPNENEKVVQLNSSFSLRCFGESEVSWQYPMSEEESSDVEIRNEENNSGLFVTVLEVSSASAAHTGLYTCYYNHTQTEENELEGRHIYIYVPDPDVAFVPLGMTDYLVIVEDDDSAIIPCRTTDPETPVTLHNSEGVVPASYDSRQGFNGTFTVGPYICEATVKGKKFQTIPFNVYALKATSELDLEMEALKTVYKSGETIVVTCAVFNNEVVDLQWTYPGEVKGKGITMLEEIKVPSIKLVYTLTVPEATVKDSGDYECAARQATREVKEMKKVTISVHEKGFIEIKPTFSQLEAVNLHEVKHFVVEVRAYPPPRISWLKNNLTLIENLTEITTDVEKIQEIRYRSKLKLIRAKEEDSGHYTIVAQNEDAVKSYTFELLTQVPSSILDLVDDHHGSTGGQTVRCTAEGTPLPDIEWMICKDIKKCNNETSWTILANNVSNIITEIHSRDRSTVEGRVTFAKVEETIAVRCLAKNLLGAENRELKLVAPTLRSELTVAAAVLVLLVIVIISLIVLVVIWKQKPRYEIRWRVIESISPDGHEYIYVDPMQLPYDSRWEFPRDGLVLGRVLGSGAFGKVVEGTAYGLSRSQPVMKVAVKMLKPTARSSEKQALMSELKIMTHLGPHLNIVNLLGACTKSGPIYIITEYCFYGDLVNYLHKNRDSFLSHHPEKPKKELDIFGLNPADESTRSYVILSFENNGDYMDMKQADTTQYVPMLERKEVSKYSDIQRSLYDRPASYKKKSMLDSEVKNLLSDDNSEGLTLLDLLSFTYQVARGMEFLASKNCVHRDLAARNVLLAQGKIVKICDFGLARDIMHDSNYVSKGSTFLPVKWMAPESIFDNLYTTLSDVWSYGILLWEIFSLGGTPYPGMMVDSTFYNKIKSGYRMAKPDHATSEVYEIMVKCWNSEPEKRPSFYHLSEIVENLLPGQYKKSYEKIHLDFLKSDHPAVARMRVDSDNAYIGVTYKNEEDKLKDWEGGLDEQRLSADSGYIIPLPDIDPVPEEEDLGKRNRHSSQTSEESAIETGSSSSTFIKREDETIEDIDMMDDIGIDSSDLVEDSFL
PEAK1, sequence (Q9H792 whole entry): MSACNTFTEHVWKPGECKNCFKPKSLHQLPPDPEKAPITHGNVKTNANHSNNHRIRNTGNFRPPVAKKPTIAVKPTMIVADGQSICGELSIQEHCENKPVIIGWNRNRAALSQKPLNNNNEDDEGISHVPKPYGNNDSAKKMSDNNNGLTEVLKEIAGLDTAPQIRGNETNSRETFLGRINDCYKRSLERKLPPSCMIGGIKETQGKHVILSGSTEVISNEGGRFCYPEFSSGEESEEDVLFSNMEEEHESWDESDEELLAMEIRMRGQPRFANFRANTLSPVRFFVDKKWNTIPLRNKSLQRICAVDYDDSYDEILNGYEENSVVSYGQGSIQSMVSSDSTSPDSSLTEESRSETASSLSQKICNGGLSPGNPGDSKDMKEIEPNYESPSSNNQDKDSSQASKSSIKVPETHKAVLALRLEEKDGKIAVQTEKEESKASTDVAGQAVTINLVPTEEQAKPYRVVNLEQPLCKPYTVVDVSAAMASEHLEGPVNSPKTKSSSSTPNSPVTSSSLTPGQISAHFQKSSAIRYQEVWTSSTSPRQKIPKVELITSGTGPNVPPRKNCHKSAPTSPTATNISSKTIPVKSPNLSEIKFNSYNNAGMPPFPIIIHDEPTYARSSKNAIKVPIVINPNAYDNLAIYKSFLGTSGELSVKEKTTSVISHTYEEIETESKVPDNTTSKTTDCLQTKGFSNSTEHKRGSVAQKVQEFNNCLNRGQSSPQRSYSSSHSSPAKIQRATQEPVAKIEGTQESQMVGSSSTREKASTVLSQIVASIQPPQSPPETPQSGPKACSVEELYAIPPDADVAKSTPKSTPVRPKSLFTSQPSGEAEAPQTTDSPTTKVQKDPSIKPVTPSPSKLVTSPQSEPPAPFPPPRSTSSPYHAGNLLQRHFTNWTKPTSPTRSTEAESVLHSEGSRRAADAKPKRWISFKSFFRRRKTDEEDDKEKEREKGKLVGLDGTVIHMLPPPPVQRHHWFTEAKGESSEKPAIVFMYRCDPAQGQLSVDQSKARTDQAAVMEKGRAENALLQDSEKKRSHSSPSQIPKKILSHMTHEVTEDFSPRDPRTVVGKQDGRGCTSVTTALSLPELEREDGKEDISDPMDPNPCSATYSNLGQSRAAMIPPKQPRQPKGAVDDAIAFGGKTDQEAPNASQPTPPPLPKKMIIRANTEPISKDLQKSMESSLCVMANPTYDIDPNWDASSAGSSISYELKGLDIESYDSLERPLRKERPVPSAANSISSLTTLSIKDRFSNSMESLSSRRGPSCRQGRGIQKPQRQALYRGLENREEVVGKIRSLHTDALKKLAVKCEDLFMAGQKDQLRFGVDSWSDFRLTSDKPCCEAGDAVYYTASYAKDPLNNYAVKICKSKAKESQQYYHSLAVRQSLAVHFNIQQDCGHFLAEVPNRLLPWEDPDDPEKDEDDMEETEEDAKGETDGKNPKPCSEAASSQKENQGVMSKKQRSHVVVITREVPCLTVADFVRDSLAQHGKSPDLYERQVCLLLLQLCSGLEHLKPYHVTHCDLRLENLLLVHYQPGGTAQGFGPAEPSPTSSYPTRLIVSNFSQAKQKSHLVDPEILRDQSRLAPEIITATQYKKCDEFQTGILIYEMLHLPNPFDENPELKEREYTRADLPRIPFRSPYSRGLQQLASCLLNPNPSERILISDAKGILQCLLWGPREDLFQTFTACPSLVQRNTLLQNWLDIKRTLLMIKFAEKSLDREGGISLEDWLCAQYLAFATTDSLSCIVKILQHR
BTK, sequence (Q06187 whole entry): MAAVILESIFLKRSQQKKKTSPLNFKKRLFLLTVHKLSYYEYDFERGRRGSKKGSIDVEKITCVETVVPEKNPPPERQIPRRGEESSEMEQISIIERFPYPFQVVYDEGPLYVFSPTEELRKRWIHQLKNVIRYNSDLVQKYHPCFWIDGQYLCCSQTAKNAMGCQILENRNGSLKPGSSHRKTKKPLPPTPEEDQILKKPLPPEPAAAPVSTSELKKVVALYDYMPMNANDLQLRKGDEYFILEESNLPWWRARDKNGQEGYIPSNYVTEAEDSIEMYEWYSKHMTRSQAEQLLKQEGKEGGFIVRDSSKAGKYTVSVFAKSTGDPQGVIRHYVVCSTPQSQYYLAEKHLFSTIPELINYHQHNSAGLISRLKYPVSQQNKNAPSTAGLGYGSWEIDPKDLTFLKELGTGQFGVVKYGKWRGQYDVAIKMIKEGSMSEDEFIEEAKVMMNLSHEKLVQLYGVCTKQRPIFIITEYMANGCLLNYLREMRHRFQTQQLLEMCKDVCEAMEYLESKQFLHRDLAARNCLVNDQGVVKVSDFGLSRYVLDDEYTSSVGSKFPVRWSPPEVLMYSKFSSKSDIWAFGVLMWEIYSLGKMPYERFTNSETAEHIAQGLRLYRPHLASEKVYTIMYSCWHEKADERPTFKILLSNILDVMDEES

`Cc1ccc(Nc2ncc3cc(-c4cc(NC(=O)c5cccc(C(F)(F)F)c5)ccc4C)ncc3n2)cn1` [Compound No. 4, N-(4-methyl-3-(2-((6-methylpyridin-3-yl)amino)pyrido[3,4-d]pyrimidin-6-yl)phenyl)-3-(trifluoromethyl)benzamide]: the concentration for half-maximal inhibition (IC50) is < 100 nM in assay [1] and 100 to 1000 nM in assay [2]. For the same molecule, the GI50 in [3], in assay [4] and in assay [5] was < 0.5 µM throughout. Further, the inhibition at 1 µM in [6], in assay [7], in assay [8], in assay [9], in assay [10] and in assay [11] was ≥ 70% throughout. For the same molecule, in assay [12], the inhibition at 1 µM was ≥ 70%.
